Data set [1] deals with four human cancer cell lines. Details: method as in doi:10.1016/j.molstruc.2023.136953. Conditions: earlier study of the authors; read-out: GI50 against the four cancer cell lines; cited from earlier work.
Data set [2] addresses T1, HER-2 (Homo sapiens, UniProt P04626).
T1 construct: purchased Abcam ab60866
Also on record: method as in PMID 39434991. The following applies: earlier study of the authors; read-out: HER-2 inhibitory IC50; cited from earlier work.

Data set [3] concerns the target T2, EGFR (Homo sapiens, UniProt P00533). Details: 645–1186; His6 (N); made in house; host or cells: Sf-9 insect cells (baculovirus; pBlueBacHis2B / pFASTBacHTc); method as in PMID 39434991. Conditions: earlier study of the authors; read-out: EGFR inhibitory IC50; cited from earlier work.
The subject of data set [4] is four human cancer cell lines (A-549, MCF-7, Panc-1, HT-29). The data set is described as follows: Antiproliferative assay, average over four cancer cell lines (GI50). Type of data set: cell-based. The following applies: for GI50: GI50 = mean IC50 against the four cancer cell lines. The method, then:
(§1) 4.2.2. Assay for antiproliferative effect
To explore the antiproliferative potential of compounds propidium iodide fluorescence assay was performed using different cell lines such as Panc-1 (pancreas cancer cell line), MCF-7 (breast cancer […]
calculate the total nuclear DNA, a fluorescent dye (propidium iodide, PI) is used which can attach to the DNA, thus offering a quick and precise technique. PI cannot pass through the cell membrane and its signal intensity can be considered as directly proportional to quantity of cellular DNA. Cells whose cell membranes are damaged or have changed permeability are counted as dead ones. The assay was performed by seeding the cells of different cell lines at a density of 3000-7500 cells/well (in 200μl […]
atmospheric conditions. The medium was removed; the compounds were added to the plates at 10 μM concentrations (in 0.1% DMSO) in triplicates, followed by incubation for 48h. DMSO (0.1%) was used as control. After incubation, medium was removed followed by the addition of PI (25 μl, 50μg/mL in water/medium) to each well of the plates. At -80 °C, the plates were allowed to freeze for 24 h, followed by thawing at 25 °C. A fluorometer (Polar-Star BMG Tech) was used to record the readings at excitation and emission wavelengths of 530 and 620 nm for each well. The percentage cytotoxicity of compounds was calculated using the following formula:
Where ATC= Absorbance of treated cells and AC= Absorbance of control. […]
positive control in the assay. […]

Data set [5] has as its target T1, HER-2. The data set is described as follows: HER-2 inhibitory assay (ADP-Glo kinase assay). Type of data set: biochemical. Conditions: read-out: HER-2 inhibition IC50 ± SEM. How it is done:
The results are presented as IC50 values. Lapatinib served as the reference medication. Appendix A describes more experimental details.
Lapatinib functioned as the reference drug. […]
4.2.5. HER-2 inhibitory assay
The ADP-Glo™ Kinase Assay was used for kinase activity detection, related kinases information:
HER-2 (ab60866, Abcam), with a concentration of 100 ng/mL. Target compounds were dissolved in DMSO to obtain drug solutions with different concentrations, and the compound concentrations in the final reaction system (100 μL) were 1 nM, 20 nM, 40 nM, 80 nM, and 100 nM, respectively. 10μL of the solution containing compounds was transferred to a 96-well plate, then added 40 μL of 1 × kinase buffer (50 mM HEPES, pH 7.5) to each well, and mixed the mixture in the 96-well plate on a shaker for 10 min. Next, added 25 μL of ADP-Glo™ reagent to the above wells, mixed and incubated for another 40 min. Distributed 10 μL kinase detection reagent to the reaction and incubated for 30 min. Finally, the full-wavelength microplate reader was used to record the OD value.
4.3. Statistical analysis
Computerized Prism 5 program was used to statistically analyzed data using one-way ANOVA test followed by Tukey’s as post ANOVA for multiple comparison at P ≤.05. Data were presented as […]

In data set [6] the test system is breast cancer (MCF-7). The data set is described as follows: Antiproliferative assay, MCF-7. Type of data set: cell-based, human. The following applies: Homo sapiens, MCF7; MCF-7 breast cancer cell line; read-out: Antiproliferative activity IC50 ± SEM (nM) MCF-7. The method, then:
as §1
(§2) To explore the antiproliferative potential of compounds propidium iodide fluorescence assay was performed using different cell lines such as Panc-1 (pancreas cancer cell line), MCF-7 (breast cancer cell line), HT-29 (colon cancer cell line) and A-549 (epithelial cancer cell line), respectively. To calculate the total nuclear DNA, a fluorescent dye (propidium iodide, PI) is used which can attach to the DNA, thus offering a quick and precise technique. PI cannot pass through the cell membrane and its signal intensity can be considered as directly proportional to quantity of cellular DNA. Cells whose cell membranes are damaged or have changed permeability are counted as dead ones. The assay was performed by seeding the cells of different cell lines at a density of 3000-7500 cells/well (in 200μl medium) in culture plates followed by incubation for 24h at 37 °C in humidified 5%CO2/95% air atmospheric conditions. The medium was removed; the compounds were added to the plates at 10 μM concentrations (in 0.1% DMSO) in triplicates, followed by incubation for 48h. DMSO (0.1%) was used as control. After incubation, medium was removed followed by the addition of PI (25 μl, 50μg/mL in water/medium) to each well of the plates. At -80 °C, the plates were allowed to freeze for 24 h, followed by thawing at 25 °C. A fluorometer (Polar-Star BMG Tech) was used to record the readings at excitation and emission wavelengths of 530 and 620 nm for each well. The percentage cytotoxicity of compounds was calculated using the following formula:
(§3) Where ATC= Absorbance of treated cells and AC= Absorbance of control. Erlotinib was used as positive control in the assay. […]

The subject of data set [7] is lung cancer (A-549). The data set is described as follows: Antiproliferative assay, A-549. The following applies: Homo sapiens, A549; A-549 lung cancer cell line; read-out: Antiproliferative activity IC50 ± SEM (nM) A-549. Type of data set: cell-based. The method, then:
as §1, §2, §3
(1 picture or pasted object on this page, not shown here)

Data set [8] deals with BRAF^V600E (Mus musculus, UniProt P28028, V585E). The data set is described as follows: BRAF^V600E inhibitory assay.
BRAF^V600E (Mus musculus, UniProt P28028, V585E), sequence (P28028 whole entry V585E): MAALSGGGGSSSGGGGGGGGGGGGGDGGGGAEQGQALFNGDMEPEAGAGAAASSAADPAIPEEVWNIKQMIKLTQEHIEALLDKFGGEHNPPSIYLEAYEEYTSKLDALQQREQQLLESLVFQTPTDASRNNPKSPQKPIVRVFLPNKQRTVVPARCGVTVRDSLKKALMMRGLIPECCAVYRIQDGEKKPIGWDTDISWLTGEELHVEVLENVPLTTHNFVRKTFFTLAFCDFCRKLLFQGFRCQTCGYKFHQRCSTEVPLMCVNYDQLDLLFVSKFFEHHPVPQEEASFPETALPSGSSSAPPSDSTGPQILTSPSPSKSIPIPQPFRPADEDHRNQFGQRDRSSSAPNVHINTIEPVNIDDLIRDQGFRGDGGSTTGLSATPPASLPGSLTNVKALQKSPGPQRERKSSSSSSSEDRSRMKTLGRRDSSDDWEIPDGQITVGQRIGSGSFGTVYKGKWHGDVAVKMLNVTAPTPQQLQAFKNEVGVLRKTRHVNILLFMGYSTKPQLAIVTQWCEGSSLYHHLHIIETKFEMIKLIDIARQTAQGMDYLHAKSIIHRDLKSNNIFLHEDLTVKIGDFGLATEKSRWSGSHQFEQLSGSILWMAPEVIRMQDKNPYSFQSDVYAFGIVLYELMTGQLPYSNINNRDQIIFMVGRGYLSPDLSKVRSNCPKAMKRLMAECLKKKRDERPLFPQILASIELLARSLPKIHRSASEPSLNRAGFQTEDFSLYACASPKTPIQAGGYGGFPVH
Data set [9] concerns colon cancer (HT-29). The data set is described as follows: Antiproliferative assay, HT-29. Type of data set: cell-based. Conditions: Homo sapiens; HT-29 colon cancer cell line; read-out: Antiproliferative activity IC50 ± SEM (nM) HT-29. The method, then:
as §1, §2, §3

Data set [10] addresses T2, EGFR. The data set is described as follows: EGFR-TK inhibitory assay.
Procedure: Baculoviral expression vectors including pBlueBacHis2B and pFASTBacHTc were used separately
upstream to the EGFR sequence comprised a sequence that encoded (His)6. Sf-9 cells were infected for 72h for protein expression. The pellets of Sf-9 cells were solubilized in a buffer containing sodium vanadate (100 μM), aprotinin (10 μg/mL), triton (1%), HEPES buffer(50mM), ammonium molybdate (10 μM), benzamidine HCl (16 μg/mL), NaCl (10 mM),leupeptin (10 μg/mL) and pepstatin (10 μg/mL) at 0°C for 20 min at pH 7.4, followed by centrifugation for 20 min. To eliminate the nonspecifically bound material, a Ni-NTA super flow packed column was used to pass through and wash the crude extract supernatant first with 10mM and then with 100 mM imidazole. Histidine-linked proteins were first eluted with 250 and then with 500 mM imidazole subsequent to dialysis against NaCl (50 mM), HEPES (20 mM), glycerol (10%) and 1 μg/mL each of aprotinin, leupeptin and pepstatin for 120 min. The purification was performed either at 4 °C or on ice. To record autophosphorylation level, EGFR kinase assay was carried out on the basis of DELFIA/Time-Resolved Fluorometry. The compounds were first dissolved in DMSO absolute, subsequent to dilution to appropriate concentration using HEPES (25 mM) at pH 7.4. Each compound (10 μL) was incubated with recombinant enzyme (10 μL, 5 ng for EGFR, 1:80 dilution in 100 mM HEPES) for 10 min at 25 °C, subsequent to the addition of 5X buffer (10 μL, containing 2 mM MnCl2, 100 μM Na3VO4, 20 mM HEPES and 1 mM DTT) and ATP-MgCl2 (20 μL, containing 0.1 mM ATP and 50 mM MgCl2) and incubation for 1h. The negative and positive controls were included in each plate by the incubation of enzyme either with or without ATP-MgCl2. The liquid was removed after incubation and the plates were washed thrice using a wash buffer. The Europium-tagged antiphosphotyrosine antibody (75 μL, 400 ng) was added to each well followed by incubation of 1h
and then washing of the plates using buffer. The enhancement solution was added to each well and
autophosphorylation percentage inhibition by compounds was calculated using the following
calculated. The majority of signals detected by antiphosphotyrosine antibody were from EGFR because the enzyme preparation contained low impurities.
Data set [11] deals with pancreatic cancer (Panc-1). The data set is described as follows: Antiproliferative assay, Panc-1. Type of data set: cell-based. The following applies: Homo sapiens; Panc-1 pancreatic cancer cell line; read-out: Antiproliferative activity IC50 ± SEM (nM) Panc-1. The method, then:
as §1, §2, §3

A short description of data set [12]: Cell viability assay (MTT) on MCF-10A normal cell line. Type of data set: cell-based. The following applies: human, MCF-10A mammary gland epithelial normal cells, MCF-10A cells, 50 μM of each compound, four days of incubation. The method, then:
The human mammary gland epithelial (MCF-10A) normal cell line was used to examine the viability effects of new derivatives 5a–l using the MTT test.[33,34] Refer to Appendix A for more details.
The human mammary gland epithelium (MCF-10A) normal cell line was employed to evaluate the viability effects of novel derivatives 5a–l. The cell viability of 5a–l was assessed via the MTT assay following four days of incubation with 50 μM of each compound on MCF-10A cells.[33,34] […]
4.2. Biological evaluation
4.2.1 Cell Viability assay (MTT assay)
MTT assay was performed to investigate the effect of the synthesized compounds on mammary epithelial cells (MCF-10A). The cells were propagated in medium consisting of Ham's F-12 medium/ Dulbecco's modified Eagle's medium (DMEM) (1:1) supplemented with 10% foetal calf serum, 2 mM glutamine, insulin (10 μg/mL), hydrocortisone (500 ng/mL) and epidermal growth factor (20 ng/mL). Trypsin ethylenediamine tetra acetic acid (EDTA) was used to passage the cells after every 2-3 days. 96-well flat-bottomed cell culture plates were used to seed the cells at a density of 10^4 cells mL-1. The medium was aspirated from all the wells of culture plates after 24 h followed by the addition of synthesized compounds (in 200 μL medium to yield a final concentration of 0.1% (v/v) dimethyl sulfoxide) into individual wells of the plates. Four wells were designated to a single compound. The plates were allowed to incubate at 37°C for 96 h. Afterwards, the medium was aspirated and 3-[4,5-dimethylthiazol-2-yl]-2,5-diphenyltetrazolium bromide (MTT) (0.4 mg/mL) in medium was added to each well and subsequently incubated for 3 h. The medium was aspirated and 150 μL dimethyl sulfoxide (DMSO) was added to each well. The plates were vortexed followed by the measurement of absorbance at 540 nm on a microplate reader. The results were presented as inhibition (%) of proliferation in contrast to controls comprising 0.1% DMSO. […]

For data set [13], the target named is T2, EGFR. Details: 645–1186; His6 (N); made in house; host or cells: Sf-9 insect cells (baculovirus; pBlueBacHis2B / pFASTBacHTc); method as in doi:10.1016/j.molstruc.2023.136953. Conditions: earlier study of the authors; cited from earlier work.
Data set [14] has as its system BRAF^V600E. The data set is described as follows: BRAF^V600E inhibitory assay. The following applies: ratio of BRAF^V600E IC50 versus erlotinib.

The values that follow come from publication PMC12517401, “Design, synthesis, and antiproliferative activity of new 2-amino-pyrano[3,2-c]quinoline-3-carbonitriles as potential EGFR, BRAF^V600E, and HER-2 inhibitors” (RSC Advances, 2025).

Like-named read-outs stand apart in the source and are kept apart here.

T1 sequence (P04626 23-1255): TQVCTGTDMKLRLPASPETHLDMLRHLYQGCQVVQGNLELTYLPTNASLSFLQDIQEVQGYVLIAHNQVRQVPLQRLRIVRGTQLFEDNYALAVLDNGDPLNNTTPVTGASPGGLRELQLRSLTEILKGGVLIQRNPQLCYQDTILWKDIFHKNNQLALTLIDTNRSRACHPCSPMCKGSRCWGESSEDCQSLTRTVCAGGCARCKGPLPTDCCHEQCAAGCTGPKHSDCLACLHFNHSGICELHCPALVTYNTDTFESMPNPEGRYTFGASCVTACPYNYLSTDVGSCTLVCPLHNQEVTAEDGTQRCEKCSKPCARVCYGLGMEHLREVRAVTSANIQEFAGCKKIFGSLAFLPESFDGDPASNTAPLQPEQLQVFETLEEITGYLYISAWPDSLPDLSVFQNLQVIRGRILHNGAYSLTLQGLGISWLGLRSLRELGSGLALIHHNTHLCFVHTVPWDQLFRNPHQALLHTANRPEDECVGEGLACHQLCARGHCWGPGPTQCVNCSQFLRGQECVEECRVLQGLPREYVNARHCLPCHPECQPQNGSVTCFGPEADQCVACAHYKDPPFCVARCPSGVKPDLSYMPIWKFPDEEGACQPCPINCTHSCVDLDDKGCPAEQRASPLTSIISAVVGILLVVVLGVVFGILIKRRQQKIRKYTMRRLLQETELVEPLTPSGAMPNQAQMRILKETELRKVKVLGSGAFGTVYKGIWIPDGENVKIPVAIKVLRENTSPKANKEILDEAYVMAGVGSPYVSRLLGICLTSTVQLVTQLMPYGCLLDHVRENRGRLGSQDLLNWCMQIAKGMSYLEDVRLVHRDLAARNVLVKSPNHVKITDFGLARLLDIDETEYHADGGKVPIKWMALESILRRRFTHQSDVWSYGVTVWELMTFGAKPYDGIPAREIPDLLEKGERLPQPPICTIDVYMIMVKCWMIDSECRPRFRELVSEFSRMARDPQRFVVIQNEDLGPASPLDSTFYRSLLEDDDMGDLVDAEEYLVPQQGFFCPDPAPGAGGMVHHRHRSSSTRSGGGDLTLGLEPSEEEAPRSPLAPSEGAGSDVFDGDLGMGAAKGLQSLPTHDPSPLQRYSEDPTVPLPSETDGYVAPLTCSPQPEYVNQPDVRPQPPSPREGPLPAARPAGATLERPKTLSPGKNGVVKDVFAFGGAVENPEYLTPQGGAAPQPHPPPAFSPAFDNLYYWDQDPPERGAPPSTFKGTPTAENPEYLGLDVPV
T2 sequence (P00533 669-1210): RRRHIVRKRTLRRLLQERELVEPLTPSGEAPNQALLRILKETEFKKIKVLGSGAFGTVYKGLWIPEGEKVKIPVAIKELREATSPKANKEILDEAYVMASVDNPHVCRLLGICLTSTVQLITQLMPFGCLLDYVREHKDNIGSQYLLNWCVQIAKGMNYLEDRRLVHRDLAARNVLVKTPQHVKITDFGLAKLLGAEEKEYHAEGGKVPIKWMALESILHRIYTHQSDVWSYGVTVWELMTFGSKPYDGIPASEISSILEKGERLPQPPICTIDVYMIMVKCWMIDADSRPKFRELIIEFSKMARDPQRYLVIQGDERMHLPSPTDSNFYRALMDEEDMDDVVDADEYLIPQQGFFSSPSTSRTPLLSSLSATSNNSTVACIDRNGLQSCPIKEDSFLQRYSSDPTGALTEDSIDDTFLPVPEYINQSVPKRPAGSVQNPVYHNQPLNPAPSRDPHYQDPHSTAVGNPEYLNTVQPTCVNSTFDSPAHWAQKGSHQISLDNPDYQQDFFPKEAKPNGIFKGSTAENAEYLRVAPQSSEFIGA
BRAF^V600E, sequence (P28028 whole entry V585E): as the sequence (P28028 whole entry V585E) above

As to `COc1cccc2c1C(=O)c1c(O)c3c(c(O)c1C2=O)C[C@@](O)(C(=O)CO)C[C@@H]3O[C@H]1C[C@H](N)[C@H](O)[C@H](C)O1` [doxorubicin], the 50% growth inhibitory concentration (GI50) in [1] is 1400 nM.
For `O=c1[nH]c2ccccc2c(O)c1/C=N/c1ccc(NS(=O)(=O)c2ncccn2)cc1` [Compound I], the concentration for half-maximal inhibition (IC50) in [2] is 31 nM; in data set [3], 71 nM.
In [4] (Homo sapiens), `Cc1ccc2c3c(c(=O)[nH]c2c1)C(c1ccccc1)C(C#N)=C(N)O3` (stereo not shown) [Compound 5d, 2-Amino-8-methyl-5-oxo-4-phenyl-5,6-dihydro-4H-pyrano[3,2-c]quinoline-3-carbonitrile] came in with a GI50 of 35 nM. The half-inhibitory concentration (IC50) in data set [5] is 39 ± 2 nM; in data set [6], 31 ± 2 nM; in [7], 35 ± 3 nM; in data set [8] it was 83 ± 5 nM; in data set [9], 37 ± 3 nM; in data set [10] it was 87 ± 5 nM. For the same molecule, the concentration for half-maximal inhibition (IC50) in data set [11] was 36 ± 3 nM. Moreover, the viability at 4 days, 50 µM in [12] worked out at 93%.
Turning to `CC(=NO)c1ccc(NC(=O)c2cc(-c3ccc(S(C)(=O)=O)cc3)nc3ccccc23)cc1` [Compound II], the GI50 in data set [1] is 1200 nM. In data set [13], the IC50 is 105 ± 10 nM.
`N#CC1=C(N)Oc2c(c(=O)[nH]c3ccccc23)C1c1ccccc1` (stereo not shown) [Compound 5a, 2-Amino-5-oxo-4-phenyl-5,6-dihydro-4H-pyrano[3,2-c]quinoline-3-carbonitrile] had a concentration for 50% growth inhibition (GI50) in [4] (Homo sapiens) of 31 nM. Also, the half-maximal inhibitory concentration (IC50) is 36 ± 2 nM in data set [5]; 27 ± 2 nM in data set [6]; 32 ± 2 nM in [7]; 79 ± 5 nM in data set [8]; 32 ± 2 nM in data set [9]; 84 ± 5 nM in data set [10]. Besides, the IC50 in data set [11] turned out to be 32 ± 2 nM. In addition, the “Fold less potent than 5e, EGFR” value in data set [10] (ratio of EGFR IC50 versus 5e) is recorded as 1.2 fold. For the same molecule, in data set [12], the viability at 4 days, 50 µM came out at 92%.
Regarding `COc1ccc(C2C(C#N)=C(N)Oc3c2c(=O)[nH]c2ccc(OC)cc32)cc1` (stereo not shown) [Compound 5h, 2-Amino-9-methoxyl-4-(4-methoxylphenyl)-5-oxo-5,6-dihydro-4H-pyrano[3,2-c]quinoline-3-carbonitrile], the GI50 was 28 nM in data set [4] and 26 nM in data set [4] (Homo sapiens). In addition, in data set [4] (ratio of GI50 versus erlotinib, four cancer cell lines), the “Times more effective than erlotinib (GI50)” value is given as 1.25 fold. The IC50 came out at 23 ± 1 nM in data set [5]; 26 ± 2 nM in [6]; 28 ± 2 nM in data set [7]; 67 ± 3 nM in data set [8]; 29 ± 2 nM in [9]; 75 ± 4 nM in data set [10]. In data set [11], the IC50 was determined as 29 ± 2 nM. In addition, the “Fold reduced potency compared to erlotinib, BRAF^V600E” value in data set [14] is 1.1 fold. For the same molecule, in [12], the viability at 4 days, 50 µM amounted to 91%.
`COc1ccc(C2C(C#N)=C(N)Oc3c2c(=O)n(C)c2ccccc32)cc1` (stereo not shown) [Compound 5i, 2-Amino-6-methyl-4-(4-methoxylphenyl)-5-oxo-5,6-dihydro-4H-pyrano[3,2-c]quinoline-3-carbonitrile] came in with a 50% growth inhibitory concentration (GI50) in data set [4] (Homo sapiens) of 30 nM. For the same molecule, the IC50 in data set [5] amounted to 31 ± 2 nM; in data set [6], 27 ± 2 nM; in [7] it was 30 ± 2 nM; in data set [8] it was 74 ± 4 nM; in data set [9], 33 ± 2 nM; in [10] it was 78 ± 4 nM. In data set [11], the IC50 turned out to be 31 ± 2 nM. Further, the “Fold reduced potency compared to erlotinib, BRAF^V600E” value in data set [14] is 1.3 fold. Moreover, the viability at 4 days, 50 µM in data set [12] was determined as 90%.
